This is an account of results in patent US20250326732A1 (Pretzel Therapeutics, Inc., priority 2021, published 2025).

pIC50: −log10 of the molar value. A value given as a limit tells only on which side of the number the result lay.

Chain of POLRMT (O00411 42-1230): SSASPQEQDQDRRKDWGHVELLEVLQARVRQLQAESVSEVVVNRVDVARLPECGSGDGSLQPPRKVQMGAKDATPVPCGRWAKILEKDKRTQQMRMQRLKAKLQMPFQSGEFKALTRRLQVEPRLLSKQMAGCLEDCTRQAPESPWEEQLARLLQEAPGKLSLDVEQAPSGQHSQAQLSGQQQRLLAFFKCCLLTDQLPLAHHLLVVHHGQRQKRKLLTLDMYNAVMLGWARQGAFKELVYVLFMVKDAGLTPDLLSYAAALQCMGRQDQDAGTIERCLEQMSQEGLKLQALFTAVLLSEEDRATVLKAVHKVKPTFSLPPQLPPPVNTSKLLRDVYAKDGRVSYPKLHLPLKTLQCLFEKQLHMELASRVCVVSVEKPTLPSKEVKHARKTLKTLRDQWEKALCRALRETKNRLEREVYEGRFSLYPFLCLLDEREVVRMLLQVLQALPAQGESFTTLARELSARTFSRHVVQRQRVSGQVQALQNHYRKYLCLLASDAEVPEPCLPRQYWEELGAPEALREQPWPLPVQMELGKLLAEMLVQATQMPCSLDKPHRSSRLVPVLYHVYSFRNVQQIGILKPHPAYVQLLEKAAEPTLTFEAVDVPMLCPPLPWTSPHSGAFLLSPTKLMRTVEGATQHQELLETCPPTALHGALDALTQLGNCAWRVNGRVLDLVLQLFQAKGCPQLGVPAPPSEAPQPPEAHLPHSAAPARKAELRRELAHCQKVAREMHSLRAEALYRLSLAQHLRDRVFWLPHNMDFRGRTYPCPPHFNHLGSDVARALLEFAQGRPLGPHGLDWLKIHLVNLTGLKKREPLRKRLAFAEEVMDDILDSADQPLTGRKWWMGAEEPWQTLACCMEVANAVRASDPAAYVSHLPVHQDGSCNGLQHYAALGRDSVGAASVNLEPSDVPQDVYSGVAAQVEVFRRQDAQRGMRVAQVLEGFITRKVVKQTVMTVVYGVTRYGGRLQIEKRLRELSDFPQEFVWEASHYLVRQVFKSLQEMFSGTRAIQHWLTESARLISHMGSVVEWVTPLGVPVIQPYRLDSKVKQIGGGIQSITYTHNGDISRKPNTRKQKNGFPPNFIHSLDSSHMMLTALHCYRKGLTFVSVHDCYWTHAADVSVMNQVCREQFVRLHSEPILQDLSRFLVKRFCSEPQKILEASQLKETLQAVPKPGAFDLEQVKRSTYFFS

The test deals with POLRMT (Homo sapiens (Human), UniProt O00411). Description: homogeneous TR-FRET assay of mitochondrial transcription (inhibition of POLRMT). As to conditions: 7.5 nM POLRMT, 15 nM TFB2M, 30 nM TFAM, 0.5 nM DNA template, 500 μM NTPs, 37° C. for 60 minutes. The class given is biochemical. The method, then:
The ability of some compounds of the present invention to inhibit POLRMT were determined in a homogeneous TR-FRET Assay using high-throughput screening in a 384-well plate format. […] Detection of the product is facilitated by hybridization of two DNA-oligonucleotide probes to specific and adjacent sequences within the RNA product sequence. Upon annealing of the probes, two fluorophores are coupled directly to an acceptor nucleotide probe (ATTO647, 5′), or introduced via a coupled streptavidin with a biotinylated donor nucleotide probe (Europium cryptate) that is brought into sufficient proximity to serve as a fluorescence-donor-acceptor pair. Thus, a FRET signal at 665 nm is generated upon excitation at 340 nm.
The DNA template is restriction linearized proximal to the promotor 3′-end (pUC-LSP). […] No nucleotide triphosphate mix is added to negative control samples. Microplates with compounds to be tested in the assay are prepared from 10 mM compound stocks in 100% DMSO, equal amounts of DMSO without any compound are added to positive control and negative control samples.
During the incubation, a mix of the detection reagents is prepared in a buffer such that the enzymatic reaction is terminated due to chelating of Mg-ions and increased ionic strength, containing 50 mM Tris-HCl (pH 7.5), 700 mM NaCl, 20 mM EDTA, and 0.01% (w/v) Tween-20. Europium-streptavidin is pre-incubated with a 200-fold molar excess of a random sequence oligonucleotide to block unspecific binding of oligo, for two hours at ambient temperature in the dark. Afterwards, the blocked Europium-streptavidin is kept on ice until use.
At the end of the enzymatic reaction time, 5 μL detection oligo mix in the detection buffer is added, and assay plates are mixed and kept at ambient temperature for one hour, protected from light. The concentration of the Acceptor nucleotide oligo (e.g., ATTO647N-5′-[…]-3′) and Donor nucleotide oligo (e.g., bio-5′-[…](-bio)[…]-bio-3′) in each assay well is 1 nM, and 3 nM, respectively.
After incubation with oligo mix, 5 μL of pre-blocked Europium-streptavidin reagent is dispensed to each assay well, assay plates are again mixed and kept at ambient temperature for one hour, protected from light.
The generated signal is measured with BMG Pherastar microtiter plate reader with a TRF light unit, using excitation at 340 nm, an integration time of 200 μs, and a delay time of 100 μs, before detection at 620 nm and 665 nm. The ratio of donor- and acceptor-fluorescence is used as a measure of the generated transcript product (i.e. enzymatic activity).
A general note: TR-FRET usually uses a lanthanide donor and a delayed reading to cut background.
Broadly, the pIC50 is −log10 of the IC50, conventionally taken in molar units. Low values mean a high IC50, high ones a low IC50. In turn, `O=C(O)CCNc1ccc2c(-c3ccc(F)cc3Cl)cc(=O)oc2c1` [Example 129, 3-((4-(2-chloro-4-fluorophenyl)-2-oxo-2H-chromen-7-yl)amino)propanoic acid] gave a pIC50 of 5.15.

In the case of `Cc1ccccc1-c1cc(=O)oc2cc(CC(C)C(N)=O)ccc12` (single isomer, unassigned) [Example 69, 2-methyl-3-(2-oxo-4-(o-tolyl)-2H-chromen-7-yl)propanamide], the pIC50 is 5.30. The pIC50 values of the last two molecules are within 0.2 log units of each other.

As to `Cc1ccccc1-c1cc(=O)oc2cc(C(=O)N3CCCCC3)ccc12` [Example 37, 7-(piperidine-1-carbonyl)-4-(o-tolyl)-2H-chromen-2-one], the pIC50 was 6.00.

Consider `O=C(OCc1ccc2c(-c3ccc(F)cc3Cl)cc(=O)oc2c1)N1CCCCC1` [Example 38, (4-(2-chloro-4-fluorophenyl)-2-oxo-2H-chromen-7-yl)methyl piperidine-1-carboxylate], for which the negative logarithm of the IC50 (pIC50) is 6.22.

Regarding `Cc1ccccc1-c1cc(=O)oc2cc(NCc3ccon3)ccc12` [Example 185, 7-((isoxazol-3-ylmethyl)amino)-4-(o-tolyl)-2H-chromen-2-one], the pIC50 was 6.15.

`CC[C@H](Nc1ccc2c(-c3ccccc3C)cc(=O)oc2c1)C(N)=O` [Example 212, (S)-2-((2-oxo-4-(o-tolyl)-2H-chromen-7-yl)amino)butanamide] had a negative-log IC50 (pIC50) of 6.22.

`COC(C)c1ccc2c(-c3ccccc3C)cc(=O)oc2c1` (centres unmarked) [Example 74, 7-(1-methoxyethyl)-4-(o-tolyl)-2H-chromen-2-one] had a pIC50 of 6.15. This pIC50 and that of the molecule before are within 0.2 log units of each other.

Consider `CCOC(=O)CN(C)c1ccc2c(-c3ccccc3C)cc(=O)oc2c1` [Example 142, ethyl N-methyl-N-(2-oxo-4-(o-tolyl)-2H-chromen-7-yl)glycinate], for which the negative-log IC50 (pIC50) is 7.70.

For the molecule `Cc1ccccc1-c1cc(=O)oc2cc(NCc3ccnn3C)ccc12` [Example 192, 7-(((1-methyl-1H-pyrazol-5-yl)methyl)amino)-4-(o-tolyl)-2H-chromen-2-one], the negative logarithm of the IC50 (pIC50) is 5.70. Compared with the last molecule, the pIC50 is 2.00 log units lower.

Consider `Cc1ccccc1-c1cc(=O)oc2cc(C(=O)N3CC(C(N)=O)C3)ccc12` [Example 183, 1-(2-oxo-4-(o-tolyl)-2H-chromene-7-carbonyl) azetidine-3-carboxamide], for which the negative-log IC50 (pIC50) is 5.15.

In turn, `C[C@H](Cc1ccc2c(-c3ccc(F)cc3Cl)cc(=O)oc2c1)C(=O)N1CCCCC1` [Example 19, (R)-4-(2-chloro-4-fluorophenyl)-7-(2-methyl-3-oxo-3-(piperidin-1-yl)propyl)-2H-chromen-2-one] gave a pIC50 of 4.62.

For the molecule `Cc1ccccc1-c1cc(=O)oc2cc(C(=O)N3CCC(CN(C)C)C3)ccc12` (centres unmarked) [Example 181, 7-(3-((dimethylamino)methyl)pyrrolidine-1-carbonyl)-4-(o-tolyl)-2H-chromen-2-one], the pIC50 is less than 4.00.

With `Cc1ccccc1-c1cc(=O)oc2cc(CNC(=O)N3CCC[C@H](C(=O)O)C3)ccc12` [Example 150, (S)-1-(((2-oxo-4-(o-tolyl)-2H-chromen-7-yl)methyl)carbamoyl)piperidine-3-carboxylic acid], the negative-log IC50 (pIC50) was 5.70.

Turning to `Cc1ccccc1-c1cc(=O)oc2cc([C@@H]3C[C@H]3C(=O)N(C)C)ccc12` (relative stereo) [Example 240, chiral-(trans)-N,N-dimethyl-2-(2-oxo-4-(o-tolyl)-2H-chromen-7-yl)cyclopropane-1-carboxamide], the pIC50 is 5.10.

`CC(=O)NC[C@H]1CCN(C(=O)c2ccc3c(-c4ccccc4C)cc(=O)oc3c2)C1` [Example 174, (R)—N-((1-(2-oxo-4-(o-tolyl)-2H-chromene-7-carbonyl)pyrrolidin-3-yl)methyl)acetamide] had a pIC50 of 4.33.

`Cc1ccccc1-c1cc(=O)oc2cc(N[C@H](C)CC(=O)O)ccc12` [Example 148, (R)-3-((2-oxo-4-(o-tolyl)-2H-chromen-7-yl)amino)butanoic acid] showed a negative-log IC50 (pIC50) of 5.70.

Take `Nc1ccc2c(-c3ccc(F)cc3Cl)cc(=O)oc2c1` [Example 11, 7-amino-4-(2-chloro-4-fluorophenyl)-2H-chromen-2-one]: the negative-log IC50 (pIC50) was 4.62.

Molecule `Cc1ccccc1-c1cc(=O)oc2cc(CNC(=O)C3CCC(C(=O)O)CC3)ccc12` [Example 157, (1S,4S)-4-(((2-oxo-4-(o-tolyl)-2H-chromen-7-yl)methyl)carbamoyl)cyclohexane-1-carboxylic acid] gave a pIC50 of 5.70.

With `COC(=O)CN(C)c1ccc2c(-c3ccccc3C)cc(=O)oc2c1` [Example 143, methyl N-methyl-N-(2-oxo-4-(o-tolyl)-2H-chromen-7-yl)glycinate], the pIC50 is 7.52.

In turn, `Cc1ccccc1-c1cc(=O)oc2cc(N(C)CC(C)C(=O)O)ccc12` (single isomer, unassigned) [Example 154-2] gave a negative-log IC50 (pIC50) of 6.30.

The molecule `CC(=O)NC(C)c1ccc2c(-c3ccccc3C)cc(=O)oc2c1` (centres unmarked) [Example 96, N-(1-(2-oxo-4-(o-tolyl)-2H-chromen-7-yl)ethyl)acetamide] gave a negative-log IC50 (pIC50) of 5.70.

Molecule `CN(Cc1ccc2c(-c3ccc(F)cc3Cl)cc(=O)oc2c1)C(=O)N1CCCCC1` [Example 05, N-((4-(2-chloro-4-fluorophenyl)-2-oxo-2H-chromen-7-yl)methyl)-N-methylpiperidine-1-carboxamide] gave a pIC50 of 5.40. This pIC50 lies 0.30 log units lower than the previous one.

Turning to `CCCNC(=O)c1ccc2c(-c3ccc(F)cc3Cl)cc(=O)oc2c1` [Example 22, 4-(2-chloro-4-fluorophenyl)-2-oxo-N-propyl-2H-chromene-7-carboxamide], the negative-log IC50 (pIC50) was 4.60. Against the preceding molecule, the pIC50 is 0.80 log units lower.

The molecule `Cc1ccccc1-c1cc(=O)oc2cc(CC(C)C(=O)N3CCC[C@H](C#N)C3)ccc12` (single isomer, unassigned) [Example 83] had a negative logarithm of the IC50 (pIC50) of 7.22.

`Cc1ccccc1-c1cc(=O)oc2cc(NCC(=O)N3CCC[C@H](C(=O)O)C3)ccc12` [Example 79, (S)-1-((2-oxo-4-(o-tolyl)-2H-chromen-7-yl)glycyl)piperidine-3-carboxylic acid]: the negative-log IC50 (pIC50) is 5.70.

Regarding `Cc1ccccc1-c1cc(=O)oc2cc([C@@H]3C[C@H]3C(=O)N(C)C)ccc12` (relative stereo) [Example 236, (trans)-N,N-dimethyl-2-(2-oxo-4-(o-tolyl)-2H-chromen-7-yl)cyclopropane-1-carboxamide], the negative-log IC50 (pIC50) was 5.15.

In the case of `COC(=O)CC(C)c1ccc2c(-c3ccccc3C)cc(=O)oc2c1` (centres unmarked) [Example 58, methyl 3-(2-oxo-4-(o-tolyl)-2H-chromen-7-yl)butanoate], the pIC50 was 5.52.

`CNC(=O)c1ccc2c(-c3ccccc3C)cc(=O)oc2c1` [Example 02, N-methyl-2-oxo-4-(o-tolyl)-2H-chromene-7-carboxamide] showed a pIC50 of 5.70.

`Cc1ccccc1-c1cc(=O)oc2cc(N(C)[C@@H](C)CC(=O)O)ccc12` [Example 228, (S)-3-(methyl(2-oxo-4-(o-tolyl)-2H-chromen-7-yl)amino)butanoic acid] showed a negative logarithm of the IC50 (pIC50) of 6.70.

`Cc1ccccc1-c1cc(=O)oc2cc(CC(C)C(=O)N3CCC[C@H](S(N)(=O)=O)C3)ccc12` (single isomer, unassigned) [Example 98] had a negative-log IC50 (pIC50) of 4.85.

`Cc1ccccc1-c1cc(=O)oc2cc(N(C)CC3(C(=O)O)CC3)ccc12` [Example 217, 1-((methyl(2-oxo-4-(o-tolyl)-2H-chromen-7-yl)amino)methyl)cyclopropane-1-carboxylic acid]: the negative logarithm of the IC50 (pIC50) is 7.05. This pIC50 is 2.20 log units higher than that of the molecule before.

In the case of `COCc1ccc2c(-c3ccccc3C)cc(=O)oc2c1` [Example 10, 7-(methoxymethyl)-4-(o-tolyl)-2H-chromen-2-one], the pIC50 was 6.40.

`Cc1ccccc1-c1cc(=O)oc2cc(CC(=O)O)ccc12` [Example 233, 2-(2-oxo-4-(o-tolyl)-2H-chromen-7-yl) acetic acid] had a pIC50 of 5.30.

Molecule `CNC(=O)[C@@H]1C[C@H]1c1ccc2c(-c3ccccc3C)cc(=O)oc2c1` (relative stereo) [Example 232, (trans)-N-methyl-2-(2-oxo-4-(o-tolyl)-2H-chromen-7-yl)cyclopropane-1-carboxamide] gave a pIC50 of 5.70.

For `Cc1cc(O[C@H](C)C(=O)N2CCC[C@H](C(=O)O)C2)c2c(-c3ccc(F)cc3)cc(=O)oc2c1` [Example 160, (S)-1-((R)-2-((4-(4-fluorophenyl)-7-methyl-2-oxo-2H-chromen-5-yl)oxy)propanoyl)piperidine-3-carboxylic acid], the negative logarithm of the IC50 (pIC50) was less than 4.00.
